From patent publication US20250019350A1, “SYNTHESIS OF THE PROSTATE SPECIFIC MEMBRANE ANTIGEN (PSMA) RADIOLABELED INHIBITOR [18F]DCFPYL” (Progenics Pharmaceuticals, Inc, priority 2023, published 2025)
Several values for one entry are separate records, joined by “and”; a condition that tells them apart may be missing. Equal values may be shown once.

Experiment: Radiolysis / stability of [18F]DCFPyL over time by HPLC with radiodetection (RCP, free 18F, radioactive impurities)
Format: physicochemical
Experimental: Those of ordinary skill in the art will be aware of techniques and systems for determining the radiochemical purity of a composition. In some cases, the radiochemical purity is determined using an HPLC associated with a radio-detector. Generally, the radiochemical purity is determined under ambient conditions (e.g., ambient temperature, ambient humidity, ambient light, etc.), such as in samples stored under such conditions.
Stability was assessed using reverse phase HPLC on a C18 column with a phosphate buffer/acetonitrile gradient mobile phase, and the elution profile was monitored using both UV and radiochemical detectors. Samples were analyzed either by direct injection onto the HPLC, dilution and injection or including the addition of tetraethylammonium fluoride (TEAF) into the sample before injection.
Known amounts of free ^18F either alone or spiked with TEAF were injected onto the analytic column and the eluent from the column collected over the course of a chromatogram and assaying the radioactivity using a Capintec. […] Adding TEAF into the analytic samples was incorporated into subsequent studies examining potential radiolysis of [^18F]DCFPyL to overcome some of the limitations of free ^18F quantification.
Analytical HPLC method was used. The method employs UV detection at 264 nm for chemical impurities, and an Eckert & Ziegler model B-FC-1000 gamma detector for radiochemical assays.

[1] = T = 2.5 hr, 100 mg/mL ascorbic acid pH 2.0, 256 mCi/mL at EOS
[2] = T = 2.5 hr, 20% ethanol in saline, 52 mCi/mL at EOS
[3] = T = 2.5 hr, 20% ethanol in saline, 65 mCi/mL at EOS
[4] = T = 2.5 hr, 20% ethanol in saline, 85 mCi/mL at EOS
[5] = T = 2.5 hr, control without ascorbic acid, 36% ethanol in saline, 147 mCi/mL at EOS
[6] = T = 3.0 hr, 50 mg/mL ascorbic acid pH 5.8 in final product vial, 20% ethanol, 110 mCi/mL at EOS
[7] = T = 3.0 hr, 100 mg/mL ascorbic acid pH 2.0, 256 mCi/mL at EOS
[8] = T = 3 hr, 20% ethanol in saline, 52 mCi/mL at EOS
[9] = T = 3 hr, 20% ethanol in saline, 65 mCi/mL at EOS
[10] = T = 3 hr, 20% ethanol in saline, 85 mCi/mL at EOS
[11] = T = 3 hr, 100% ethanol, 325 mCi/mL at EOS
[12] = T = 3 hr, control without ascorbic acid, 36% ethanol in saline, 147 mCi/mL at EOS
[13] = T = 3.5 hr, 50 mg/mL ascorbic acid pH 5.8 in final product vial, 20% ethanol, 110 mCi/mL at EOS
[14] = T = 3.5 hr, 100 mg/mL ascorbic acid pH 2.0, 256 mCi/mL at EOS
[15] = T = 3.5 hr, 20% ethanol in saline, 52 mCi/mL at EOS
[16] = T = 3.5 hr, 20% ethanol in saline, 65 mCi/mL at EOS
[17] = T = 3.5 hr, 20% ethanol in saline, 85 mCi/mL at EOS
[18] = T = 3.5 hr, control without ascorbic acid, 36% ethanol in saline, 147 mCi/mL at EOS
[19] = T = 4 hr, 0.5 mg/mL ascorbic acid pH 5.8, 20% ethanol, 105.8 mCi/mL at EOS
[20] = T = 4 hr, 1 mg/mL ascorbic acid pH 5.8, 20% ethanol, 107.0 mCi/mL at EOS
[21] = T = 4 hr, 5 mg/mL ascorbic acid pH 5.8, 20% ethanol, 99.0 mCi/mL at EOS
[22] = T = 4 hr, 20 mg/mL sodium citrate, 20% ethanol, 104.8 mCi/mL at EOS
[23] = T = 4 hr, 50 mg/mL ascorbic acid pH 5.8, 20% ethanol, 139.7 mCi/mL at EOS
[24] = T = 4.0 hr, 50 mg/mL ascorbic acid pH 5.8 in final product vial, 20% ethanol, 110 mCi/mL at EOS
[25] = T = 4.0 hr, 100 mg/mL ascorbic acid pH 2.0, 256 mCi/mL at EOS
[26] = T = 4 hr, 20% ethanol in saline, 52 mCi/mL at EOS
[27] = T = 4 hr, 20% ethanol in saline, 65 mCi/mL at EOS
[28] = T = 4 hr, 20% ethanol in saline, 85 mCi/mL at EOS
[29] = T = 4 hr, 100% ethanol, 325 mCi/mL at EOS
[30] = T = 4 hr, control without ascorbic acid, 36% ethanol in saline, 147 mCi/mL at EOS
[31] = T = 5 hr, 100% ethanol, 325 mCi/mL at EOS

O=C(O)CC[C@H](NC(=O)N[C@@H](CCCCNC(=O)c1ccc([18F])nc1)C(=O)O)C(=O)O [Lot 18F-DCFPyL, 2-(3-{1-carboxy-5-[(6-[18F]fluoro-pyridine-3-carbonyl)-amino]-pentyl}ureido)-pentanedioic acid]
18F-DCFPyL (RCP) [1]: 98.71%
Free 18F [1]: 0.31%
RT 12.0 radioactive impurity [1]: 0.52%
RT 12.2 radioactive impurity [1]: 0.46%
18F-DCFPyL (RCP) [2]: 98.61%
Free F-18 [2]: 0.86%
RT 5.0 radioactive impurity [2]: 0.53%
18F-DCFPyL (RCP) [3]: 95.36%
Free F-18 [3]: 3.97%
RT 5.0 radioactive impurity [3]: 0.41%
RT 5.9 radioactive impurity [3]: 0.26%
18F-DCFPyL (RCP) [4]: 95.06%
Free F-18 [4]: 4.29%
RT 5.0 radioactive impurity [4]: 0.31%
RT 5.9 radioactive impurity [4]: 0.35%
18F-DCFPyL (RCP) [5]: 88.79%
Free F-18 [5]: 9.66%
RT 5.0 radioactive impurity [5]: 0.62%
RT 5.9 radioactive impurity [5]: 0.93%
18F-DCFPyL (RCP) [6]: 99.25%
Free 18F [6]: 0.35%
RT 5.0 radioactive impurity [6]: 0.39%
RT 5.9 radioactive impurity [6]: 0.27%
18F-DCFPyL (RCP) [7]: 98.46%
Free 18F [7]: 0.29%
RT 12.0 radioactive impurity [7]: 0.69%
RT 12.2 radioactive impurity [7]: 0.57%
18F-DCFPyL (RCP) [8]: 98.53%
Free F-18 [8]: 0.99%
RT 5.0 radioactive impurity [8]: 0.48%
18F-DCFPyL (RCP) [9]: 95.64%
Free F-18 [9]: 4.03%
RT 5.0 radioactive impurity [9]: 0.34%
18F-DCFPyL (RCP) [10]: 95.10%
Free F-18 [10]: 4.26%
RT 5.0 radioactive impurity [10]: 0.37%
RT 5.9 radioactive impurity [10]: 0.27%
18F-DCFPyL (RCP) [11]: 95.71%
Free F-18 [11]: 4.29%
18F-DCFPyL (RCP) [12]: 88.94%
Free F-18 [12]: 9.49%
RT 5.0 radioactive impurity [12]: 0.70%
RT 5.9 radioactive impurity [12]: 0.87%
18F-DCFPyL (RCP) [13]: 99.46%
Free 18F [13]: 0.24%
RT 5.0 radioactive impurity [13]: 0.31%
18F-DCFPyL (RCP) [14]: 98.03%
Free 18F [14]: 0.35%
RT 12.0 radioactive impurity [14]: 0.88%
RT 12.2 radioactive impurity [14]: 0.75%
18F-DCFPyL (RCP) [15]: 98.55%
Free F-18 [15]: 0.94%
RT 5.0 radioactive impurity [15]: 0.52%
18F-DCFPyL (RCP) [16]: 95.44%
Free F-18 [16]: 4.17%
RT 5.0 radioactive impurity [16]: 0.39%
18F-DCFPyL (RCP) [17]: 95.14%
Free F-18 [17]: 4.51%
RT 5.0 radioactive impurity [17]: 0.35%
18F-DCFPyL (RCP) [18]: 88.90%
Free F-18 [18]: 9.56%
RT 5.0 radioactive impurity [18]: 0.59%
RT 5.9 radioactive impurity [18]: 0.95%
18F-DCFPyL (% RCP) [19]: 98.64%
Free F-18 [19]: 1.36%
18F-DCFPyL (% RCP) [20]: 98.56%
Free F-18 [20]: 1.44%
Free F-18 (T = 4 hr, 1 mg/mL sodium ascorbate, 20% ethanol, 111.5 mCi/mL at EOS): 2.61%
18F-DCFPyL (% RCP) [21]: 99.23%
Free F-18 [21]: 0.77%
Free F-18 (T = 4 hr, 5 mg/mL sodium ascorbate, 20% ethanol, 114.6 mCi/mL at EOS): 1.23%
Free F-18 [22]: 20.65%
RT 3.4 radioactive impurity [22]: 0.32%
RT 3.7 radioactive impurity [22]: 0.35%
18F-DCFPyL (% RCP) [23]: 99.69%
Free F-18 [23]: 0.31%
RT 4.8 radioactive impurity (T = 4 hr, 50 mg/mL ascorbic acid pH 5.8, 20% ethanol, 139.7 mCi/mL at EOS, MPA = 0.25% of main peak): <MPA
18F-DCFPyL (RCP) [24]: above 99%
Free 18F [24]: 0.26%
RT 5.0 radioactive impurity [24]: 0.37%
18F-DCFPyL (RCP) [25]: 98.0% and 97.98%
Free 18F [25]: 0.37%
RT 12.0 radioactive impurity [25]: 0.96%
RT 12.2 radioactive impurity [25]: 0.69%
18F-DCFPyL (RCP) (T = 4.0 hr, 100 mg/mL ascorbic acid pH 2.0, 256 mCi/mL at EOS, listed as [^18F]DCFPYL): 98.0%
18F-DCFPyL (RCP) [26]: 98.53%
Free F-18 [26]: 0.98%
RT 5.0 radioactive impurity [26]: 0.49%
18F-DCFPyL (RCP) [27]: 95.50%
Free F-18 [27]: 4.23%
RT 5.0 radioactive impurity [27]: 0.27%
18F-DCFPyL (RCP) [28]: 94.93%
Free F-18 [28]: 4.73%
RT 5.0 radioactive impurity [28]: 0.34%
18F-DCFPyL (RCP) [29]: 95.60%
Free F-18 [29]: 4.40%
18F-DCFPyL (RCP) [30]: 89% and 89.06%
Free F-18 [30]: 9.27%
RT 5.0 radioactive impurity [30]: 0.71%
RT 5.9 radioactive impurity [30]: 0.96%
18F-DCFPyL (RCP) (T = 4 hr, control without ascorbic acid, 36% ethanol in saline, 147 mCi/mL at EOS, listed as [^18F]DCFPYL): 89%
18F-DCFPyL (RCP) [31]: 95.58%
Free F-18 [31]: 4.42%
Free F-18 (T = 6 hr, 0.5 mg/mL ascorbic acid pH 5.8, 20% ethanol, 105.8 mCi/mL at EOS): 1.44%
18F-DCFPyL (% RCP) (T = 6 hr, 1 mg/mL ascorbic acid pH 5.8, 20% ethanol, 107.0 mCi/mL at EOS): 98.43%
